The results in this text go back to patent US8614206B2 (Genentech, Inc., priority 2011, dated 2013).

One assay has as its system BaF3 parental cells. The experiment in a line: In vitro cell proliferation, BaF3 parental line + IL3 (CellTiter-Glo). The assay is classed as cell-based, murine. (In general: In ATP-based viability assays light output follows the ATP content of the culture.)
For assay [1], the system named is MM1.S (multiple myeloma) cells. The experiment in a line: In vitro cell proliferation, MM1.S multiple myeloma cells (CellTiter-Glo, ATP). It counts as cell-based. Conditions: read-out: Prolif MM1S ATP (EC50). As to the method: BaF3, a murine interleukin-3 dependent pro-B cell line, parental cells, BaF3 PIM1 cells, BaF3 PIM2 cells, and MM1.S (multiple myeloma) cells were seeded at 2 k/well, 5 k/well, 5 k/well, and 10 k/well respectively, in a 384-well plate, at 45 μL/well. Test compound was added at 5 μL/well. BaF3 cells (parental and transfected) were incubated overnight, while MM1.S cells were incubated for 72 hours at 37° C., 5% CO2. […] IC50/EC50 values for the test compound were calculated.

Another assay addresses PIM1 (Homo sapiens (Human), UniProt P11309). The assay can be described thus: Pim kinase inhibition, PIM1 LC3K (Example 901). It counts as biochemical.
The mark [2] stands for this setting: Mus musculus, BaF3, BaF3 parental cells with IL-3, incubated overnight, read-out: Prolif BaF3 + IL3 (IC50).
Setting [3] is: Mus musculus, BaF3, BaF3 parental cells with IL-3, incubated overnight, read-out: Prolif BaF3 IL3 (IC50).
Setting [4] is: BaF3 parental cells with IL-3, incubated overnight, read-out: Prolif BaF3 + IL3 (IC50).

Read-outs that look alike come from different tables or passages of the source. Some results are limits rather than exact numbers.

Chain of PIM1 (P11309 whole entry): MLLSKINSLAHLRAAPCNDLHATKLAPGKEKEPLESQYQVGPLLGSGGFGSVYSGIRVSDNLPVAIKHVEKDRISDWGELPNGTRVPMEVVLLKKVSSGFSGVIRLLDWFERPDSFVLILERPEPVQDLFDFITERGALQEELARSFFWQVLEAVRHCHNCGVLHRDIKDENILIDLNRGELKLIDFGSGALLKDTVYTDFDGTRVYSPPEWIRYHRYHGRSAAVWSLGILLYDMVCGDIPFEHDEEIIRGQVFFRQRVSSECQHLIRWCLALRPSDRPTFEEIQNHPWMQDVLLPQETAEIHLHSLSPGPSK
From the text for PIM1: Determination of the Pim kinase activity of a Formula I compound is possible by a number of direct and indirect detection methods.

One may read the IC50 as the concentration that gives 50% inhibition. By EC50 is commonly meant the concentration giving half of the maximal effect. On to `COC1CCN(c2c(NC(=O)c3nc(-c4ncccc4F)sc3N)cnn2C)CCC1N` (racemic) [Example 323, 5-amino-N-[5-(4-amino-5-methoxy-azepan-1-yl)-1-methyl-pyrazol-4-yl]-2-(3-fluoro-2-pyridyl)thiazole-4-carboxamide], for which, in the assay with BaF3 parental cells (setting [2]), the IC50 is above 25000 nM. Moreover, the EC50 in assay [1] (Homo sapiens, MM1.S, 72 h) is 165 nM.
Taken in the same sequence, the figures for `Cn1ncc(NC(=O)c2nc(-c3c(F)cccc3F)sc2N)c1N1CCCC(C)(N)CC1` (racemic) [Example 411, 5-amino-N-[5-(4-amino-4-methyl-azepan-1-yl)-1-methyl-pyrazol-4-yl]-2-(2,6-difluorophenyl)thiazole-4-carboxamide] were 17700 nM and 1800 nM.
On to `Cn1ncc(NC(=O)c2nc(-c3c(F)cccc3F)sc2N)c1N1CCC[C@H](N)[C@@H](F)C1` (single isomer, unassigned) [Example 158], for which, in the assay with BaF3 parental cells (setting [3]), the IC50 is 11600 nM. In addition, the EC50 in assay [1] (Homo sapiens, MM1.S, 72 h) amounted to 3000 nM.
Taken in the same sequence, the figures for `Cn1ncc(NC(=O)c2nc(-c3ccccc3F)sc2N)c1N1CC[C@@H](N)[C@H](F)CC1` (single isomer, unassigned) [Example 230] were 18100 nM and 1300 nM.
As for `Cn1ncc(NC(=O)c2nc(-c3c(F)cccc3F)sc2N)c1N1CCC(N)C(O)CC1` (single isomer, unassigned) [Example 327, 5-amino-N-[5-(4-amino-5-hydroxy-azepan-1-yl)-1-methyl-pyrazol-4-yl]-2-(2,6-difluorophenyl)thiazole-4-carboxamide], the IC50 with BaF3 parental cells (setting [2]) is above 25000 nM. The EC50 in assay [1] (72 hours) was determined as 14700 nM.
For the compound `Cn1ncc(NC(=O)c2nc(-c3c(F)cccc3F)sc2N)c1N1CCC(N)C(O)CC1` (single isomer, unassigned) [Example 328, 5-amino-N-[5-(4-amino-5-hydroxy-azepan-1-yl)-1-methyl-pyrazol-4-yl]-2-(2,6-difluorophenyl)thiazole-4-carboxamide], in the assay with BaF3 parental cells (setting [4]), the 50% inhibitory concentration (IC50) was above 25000 nM. Also, in assay [1] (72 hours), the EC50 came to 11500 nM.
Regarding `Cn1ncc(NC(=O)c2nc(-c3c(F)cccc3F)sc2N)c1N1CCC(N)C(O)CC1` (single isomer, unassigned) [Example 337, 5-amino-N-[5-(4-amino-5-hydroxy-azepan-1-yl)-1-methyl-pyrazol-4-yl]-2-(2,6-difluorophenyl)thiazole-4-carboxamide], the IC50 in the assay on BaF3 parental cells (setting [4]) came to 25000 nM. Moreover, in assay [1] (72 hours), the EC50 stood at 30.8 nM.
Taken in the same sequence, the figures for `COC1(C)CC(N)CCN(c2c(NC(=O)c3nc(-c4c(F)cccc4F)sc3N)cnn2C)C1` (single isomer, unassigned) [Example 352, 5-amino-N-[5-(5-amino-3-methoxy-3-methyl-azepan-1-yl)-1-methyl-pyrazol-4-yl]-2-(2,6-difluorophenyl)thiazole-4-carboxamide] were 10400 nM and 8.69 nM.
With `COC1(C)CC(N)CCN(c2c(NC(=O)c3nc(-c4c(F)cccc4F)sc3N)cnn2C)C1` (single isomer, unassigned) [Example 353, 5-amino-N-[5-(5-amino-3-methoxy-3-methyl-azepan-1-yl)-1-methyl-pyrazol-4-yl]-2-(2,6-difluorophenyl)thiazole-4-carboxamide], in the assay on BaF3 parental cells (setting [4]), the IC50 amounted to 25000 nM. Also, the EC50 in assay [1] (72 hours) is 139 nM.
The term Ki denotes a measure of affinity in units of concentration, obtained from inhibition or displacement. A higher Ki goes with weaker binding. At PIM1, `CCn1ncc(NC(=O)c2nc(-c3c(F)cccc3F)sc2N)c1N1CCC(N)C(F)CC1` (single isomer, unassigned) [Example 370, 5-amino-N-[5-(4-amino-5-fluoro-azepan-1-yl)-1-ethyl-pyrazol-4-yl]-2-(2,6-difluorophenyl)thiazole-4-carboxamide] displayed a Ki of 0.093 nM. Further, the half-maximal effective concentration (EC50) in assay [1] (Homo sapiens, MM1.S, 72 h) amounted to 118 nM.
As for `Cn1ncc(NC(=O)c2nc(-c3c(F)cccc3F)sc2N)c1N1CCC(O)CC(F)(F)C1` (single isomer, unassigned) [Example 371, 5-amino-N-[5-(3,3-difluoro-5-hydroxy-azepan-1-yl)-1-methyl-pyrazol-4-yl]-2-(2,6-difluorophenyl)thiazole-4-carboxamide], in assay [1] (Homo sapiens, MM1.S, 72 h), the EC50 worked out at 1300 nM.
On the same count and under the same terms, to `Cn1ncc(NC(=O)c2nc(-c3c(F)cccc3F)sc2N)c1C1CC[C@@H](N)[C@@H](F)CC1` (single isomer, unassigned) [Example 381] belongs 3500 nM.
`CCn1ncc(NC(=O)c2nc(-c3c(F)cccc3F)sc2N)c1N1CCC(N)C(OC)CC1` (single isomer, unassigned) [Example 390, 5-amino-N-[5-(4-amino-5-methoxy-azepan-1-yl)-1-ethyl-pyrazol-4-yl]-2-(2,6-difluorophenyl)thiazole-4-carboxamide] displayed a Ki at PIM1 of 0.192 nM. Further, the EC50 in assay [1] (72 hours) turned out to be 147 nM.
Turning to `Cn1ncc(NC(=O)c2nc(-c3c(F)cccc3F)sc2N)c1N1CCC2NCCOC2CC1` (single isomer, unassigned) [Example 397, N-[5-(3,4,4a,5,6,8,9,9a-octahydro-2H-[1,4]oxazino[2,3-d]azepin-7-yl)-1-methyl-pyrazol-4-yl]-5-amino-2-(2,6-difluorophenyl)thiazole-4-carboxamide], the EC50 in assay [1] (Homo sapiens, MM1.S, 72 h) was 6400 nM.
In turn, `Nc1sc(-c2c(F)cccc2F)nc1C(=O)Nc1cnn(CC(F)F)c1N1CCC(N)C(O)CC1` (single isomer, unassigned) [Example 398, 5-amino-N-[5-(4-amino-5-hydroxy-azepan-1-yl)-1-(2,2-difluoroethyl)pyrazol-4-yl]-2-(2,6-difluorophenyl)thiazole-4-carboxamide] had a Ki at PIM1 of 0.142 nM. Moreover, in assay [1] (72 hours), the EC50 turned out to be 5700 nM.
Taken in the same sequence, the figures for `Nc1sc(-c2c(F)cccc2F)nc1C(=O)Nc1cnn(CC(F)F)c1N1CCC(N)C(O)CC1` (single isomer, unassigned) [Example 399, 5-amino-N-[5-(4-amino-5-hydroxy-azepan-1-yl)-1-(2,2-difluoroethyl)pyrazol-4-yl]-2-(2,6-difluorophenyl)thiazole-4-carboxamide] were 0.018 nM and 41.9 nM.
`CO[C@H]1CCC(c2c(NC(=O)c3nc(-c4ccccc4F)sc3N)cnn2C)CC[C@@H]1N` (single isomer, unassigned) [Example 414]: the IC50 with BaF3 parental cells (setting [2]) is above 25000 nM. Also, in assay [1] (Homo sapiens, MM1.S, 72 h), the EC50 came to 69.9 nM.
Taken in the same sequence, the figures for `Cn1ncc(NC(=O)c2nc(-c3c(F)cccc3F)sc2N)c1N1CCCC(C)(N)CC1` (single isomer, unassigned) [Example 436, 5-amino-N-[5-(4-amino-4-methyl-azepan-1-yl)-1-methyl-pyrazol-4-yl]-2-(2,6-difluorophenyl)thiazole-4-carboxamide] were 8300 nM and 4900 nM.
For `Cn1ncc(NC(=O)c2nc(-c3c(F)cccc3F)sc2N)c1N1CCC(N)CC2(CCO2)C1` (single isomer, unassigned) [Example 448, 5-amino-N-[5-(6-amino-1-oxa-9-azaspiro[3.6]decan-9-yl)-1-methyl-pyrazol-4-yl]-2-(2,6-difluorophenyl)thiazole-4-carboxamide], the IC50 with BaF3 parental cells (setting [2]) is above 25000 nM. The EC50 in assay [1] (72 hours) was determined as 1400 nM.
With `Cn1ncc(NC(=O)c2nc(-c3c(F)cccc3F)sc2N)c1N1CC[C@@H](N)[C@H](F)CC1` [Example 139, 5-amino-N-(5-((4R,5R)-4-amino-5-fluoroazepan-1-yl)-1-methyl-1H-pyrazol-4-yl)-2-(2,6-difluorophenyl)thiazole-4-carboxamide], in assay [1] (Homo sapiens, MM1.S, 72 h), the EC50 amounted to 68.4 nM.
On PIM1, `CO[C@H]1CCN(c2c(NC(=O)c3nc(-c4c(F)cccc4F)sc3N)cnn2C2CC2)CC[C@@H]1N` [Example 365, 5-amino-N-(5-((4S,5S)-4-amino-5-methoxyazepan-1-yl)-1-cyclopropyl-1H-pyrazol-4-yl)-2-(2,6-difluorophenyl)thiazole-4-carboxamide] registered a Ki of 0.219 nM. Also, in assay [1] (Homo sapiens, MM1.S, 72 h), the EC50 stood at 606 nM.
The compound `Nc1sc(-c2c(F)cccc2F)nc1C(=O)Nc1cnn(CC(F)F)c1N1CC[C@@H](O)[C@@H](N)CC1` [Example 375, 5-amino-N-(5-((4S,5R)-4-amino-5-hydroxyazepan-1-yl)-1-(2,2-difluoroethyl)-1H-pyrazol-4-yl)-2-(2,6-difluorophenyl)thiazole-4-carboxamide] gave a Ki on PIM1 of 0.051 nM. The EC50 in assay [1] (Homo sapiens, MM1.S, 72 h) is 70.6 nM.
For `CCOC1CCN(c2c(NC(=O)c3nc(-c4c(F)cccc4F)sc3N)cnn2C)CCC1N` (stereo not shown) [Example 385, 5-amino-N-[5-(4-amino-5-ethoxy-azepan-1-yl)-1-methyl-pyrazol-4-yl]-2-(2,6-difluorophenyl)thiazole-4-carboxamide], the EC50 in assay [1] (72 hours) was 182 nM.
With `Cn1ncc(NC(=O)c2nc(-c3ncccc3F)sc2N)c1N1CC[C@@H](F)[C@@H](N)CC1` [Example 388, 5-amino-N-(5-((4S,5R)-4-amino-5-fluoroazepan-1-yl)-1-methyl-1H-pyrazol-4-yl)-2-(3-fluoropyridin-2-yl)thiazole-4-carboxamide], the affinity on PIM1, expressed as Ki, was 0.462 nM. Moreover, the EC50 in assay [1] (Homo sapiens, MM1.S, 72 h) is 396 nM.
Taken in the same sequence, the figures for `CCn1ncc(NC(=O)c2nc(-c3ccccc3F)sc2N)c1N1CCC(N)C(OC)CC1` (stereo not shown) [Example 392, 5-amino-N-[5-(4-amino-5-methoxy-azepan-1-yl)-1-ethyl-pyrazol-4-yl]-2-(2-fluorophenyl)thiazole-4-carboxamide] were 0.668 nM and 202 nM.
In the case of `CO[C@@H]1[C@H](N)CCN(c2c(NC(=O)c3nc(-c4c(F)cccc4F)sc3N)cnn2C)CC12CC2` [Example 516, 5-amino-N-(5-((8R,9S)-8-amino-9-methoxy-5-azaspiro[2.6]nonan-5-yl)-1-methyl-1H-pyrazol-4-yl)-2-(2,6-difluorophenyl)thiazole-4-carboxamide], in assay [1] (Homo sapiens, MM1.S, 72 h), the EC50 is 5700 nM.
